In the supplement of paper PMC10627819:
≈ marks a conversion by molar mass, not a printed value.

Columns and labels:
S. pneumoniae D39V [1] = system: S. pneumoniae D39V
S. aureus Newman [2] = system: S. aureus Newman
B. subtilis 168 [3] = system: B. subtilis 168
S. aureus DSM 20231 [4] = system: S. aureus DSM 20231
S. pneumoniae D39V [5] = test: fitness (endpoint OD595 vs no drug) (fraction); higher = more growth
Procedure, shortened: (§1)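 Volumes were 30 µl per well, or 55 µl for S. pneumoniae, in 384-well plates inoculated at OD595 0.01. Media were TSB, LB Lennox or CY at 37 °C, and OD595 was read every 30 min for 14 h with first-reading background subtraction. Fitness is the ratio of optical density at stationary-phase entry to the robust mean of no-drug controls. That ratio is capped at 1.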

S. aureus Newman [6] = test: as above
Procedure, shortened: as §1

B. subtilis 168 [7] = test: as above
Procedure, shortened: as §1

S. aureus DSM 20231 [8] = test: as above
Procedure, shortened: as §1

S. pneumoniae D39V [9] = test: Bliss interaction score (quartile over a dose matrix) (fitness difference); higher = more antagonism (negative = synergy)
Procedure, shortened: (§2)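 Growth in each well was taken as OD595 at entry into stationary phase. Dividing by the plate's robust no-drug mean and capping at 1 gave fitness, and single-drug fitness was inferred from the combination data. The Bliss score, observed minus product-expected fitness, is summarised by quartiles over technical, biological and donor/recipient replicates.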

S. aureus Newman [10] = test: as above
Procedure, shortened: as §2

B. subtilis 168 [11] = test: as above
Procedure, shortened: as §2

S. aureus DSM 20231 [12] = test: as above
Procedure, shortened: as §2
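Wherever Bliss interaction score (quartile over a dose matrix) is given: first quartile when negative (synergy) and third quartile when positive (antagonism).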

CN(N=O)C(=O)N[C@@H](C=O)[C@@H](O)[C@H](O)[C@H](O)CO [Streptozotocin]
Details | MIC [µg/mL]
B. subtilis 168 [3] | 0.7 (≈ 2.64 µM)
S. aureus DSM 20231 [4] | 0.8 (≈ 3.02 µM)
S. aureus Newman [2] | 0.8 (≈ 3.02 µM)
S. pneumoniae D39V [1] | 5 (≈ 18.9 µM)

fitness
Details | 0.15 µg/mL | 0.3 µg/mL | 0.6 µg/mL | 1.2 µg/mL | 2.4 µg/mL | 4.8 µg/mL
B. subtilis 168 [7] | 0.987 | 0.961 | 0.99 | – | – | –
S. aureus DSM 20231 [8] | 0.891 | 0.843 | 0.756 | – | – | –
S. aureus Newman [6] | 0.852 | 0.735 | 0.524 | – | – | –
S. pneumoniae D39V [5] | – | – | – | 0.96 | 0.936 | 0.975

CNC(C)C1CCC(N)C(OC2C(N)CC(N)C(OC3OCC(C)(O)C(NC)C3O)C2O)O1 (stereo unspecified) [Gentamicin]
main component drawn
Details | MIC [µg/mL]
B. subtilis 168 [3] | 0.25 (≈ 0.523 µM)
S. aureus DSM 20231 [4] | 2 (≈ 4.19 µM)
S. aureus Newman [2] | 2 (≈ 4.19 µM)
S. pneumoniae D39V [1] | 18 (≈ 37.7 µM)

main component drawn
Details | fitness
B. subtilis 168 [7], 0.0625 µg/mL | 0.887
B. subtilis 168 [7], 0.125 µg/mL | 0.131
B. subtilis 168 [7], 0.25 µg/mL | 0.0542
S. aureus DSM 20231 [8], 0.5 µg/mL | ≥ 1
S. aureus DSM 20231 [8], 1 µg/mL | ≥ 1
S. aureus DSM 20231 [8], 2 µg/mL | 0.984
S. aureus DSM 20231 [8], 4 µg/mL | 0.129
S. aureus Newman [6], 0.375 µg/mL | ≥ 1
S. aureus Newman [6], 0.5 µg/mL | 0.996
S. aureus Newman [6], 0.75 µg/mL | ≥ 1
S. aureus Newman [6], 1 µg/mL | 0.992
S. aureus Newman [6], 1.5 µg/mL | 0.583
S. aureus Newman [6], 2 µg/mL | 0.999
S. aureus Newman [6], 4 µg/mL | 0.302
S. pneumoniae D39V [5], 2 µg/mL | 1
S. pneumoniae D39V [5], 4 µg/mL | 0.986
S. pneumoniae D39V [5], 8 µg/mL | 0.962

O=C(O)[C@H]1/C(=C/CO)O[C@@H]2CC(=O)N21 [Clavulanic acid]
Details | MIC [µg/mL]
B. subtilis 168 [3] | 8 (≈ 40.2 µM)
S. aureus DSM 20231 [4] | 0.5 (≈ 2.51 µM)
S. aureus Newman [2] | 0.5 (≈ 2.51 µM)
S. pneumoniae D39V [1] | 2 (≈ 10 µM)

fitness
Details | 0.5 µg/mL | 1 µg/mL | 1.5 µg/mL | 2 µg/mL | 3 µg/mL | 6 µg/mL
B. subtilis 168 [7] | – | – | 0.899 | – | 0.887 | 0.769
S. pneumoniae D39V [5] | 0.966 | 0.939 | – | 0.867 | – | –

Clc1ccc(COC(Cn2ccnc2)c2ccc(Cl)cc2Cl)c(Cl)c1 (stereo unspecified) [Miconazole]
Details | MIC [µg/mL]
B. subtilis 168 [3] | 5 (≈ 12 µM)
S. aureus DSM 20231 [4] | 5 (≈ 12 µM)
S. aureus Newman [2] | 3 (≈ 7.21 µM)
S. pneumoniae D39V [1] | 10 (≈ 24 µM)

S. pneumoniae D39V [5]
Details | fitness
1.25 µg/mL | 0.907
2.5 µg/mL | 0.893
5 µg/mL | 0.926

C[n+]1ccc(-c2cc[n+](C)cc2)cc1 [Paraquat]
Details | MIC [µg/mL]
B. subtilis 168 [3] | 50
S. aureus DSM 20231 [4] | 50
S. aureus Newman [2] | 50
S. pneumoniae D39V [1] | 10

fitness
Details | 1.25 µg/mL | 1.5 µg/mL | 2.5 µg/mL | 3 µg/mL | 5 µg/mL | 6 µg/mL
B. subtilis 168 [7] | 0.912 | – | 0.899 | – | 0.848 | –
S. aureus DSM 20231 [8] | ≥ 1 | – | 0.99 | – | 0.988 | –
S. aureus Newman [6] | 0.986 | – | 0.944 | – | 0.94 | –
S. pneumoniae D39V [5] | – | 0.992 | – | 0.993 | – | 0.965

Cc1cc(NS(=O)(=O)c2ccc(N)cc2)no1 [Sulfamethoxazol]
Details | MIC [µg/mL]
B. subtilis 168 [3] | > 16
S. aureus DSM 20231 [4] | > 16
S. aureus Newman [2] | > 16
S. pneumoniae D39V [1] | 16 (≈ 63.2 µM)

fitness
Details | B. subtilis 168 [7] | S. aureus DSM 20231 [8] | S. aureus Newman [6] | S. pneumoniae D39V [5]
1 µg/mL | 0.975 | 0.976 | 0.968 | 0.954
2 µg/mL | 0.948 | 0.946 | 0.984 | 0.984
4 µg/mL | 0.915 | 0.943 | 0.978 | 0.987

C[n+]1ccc(-c2cc[n+](C)cc2)cc1 [Paraquat] + CN(N=O)C(=O)N[C@@H](C=O)[C@@H](O)[C@H](O)[C@H](O)CO [Streptozotocin]
Details | Bliss interaction score
B. subtilis 168 [11] | 0.0356
S. aureus DSM 20231 [12] | -0.0445
S. aureus Newman [10] | -0.0522
S. pneumoniae D39V [9] | 0.0357

fitness
Details | first compound 1.25 µg/mL | first compound 1.5 µg/mL | first compound 2.5 µg/mL | first compound 3 µg/mL | first compound 5 µg/mL | first compound 6 µg/mL
S. aureus DSM 20231 [8], partner 0.15 µg/mL | 0.865 | – | 0.835 | – | 0.774 | –
S. aureus DSM 20231 [8], partner 0.3 µg/mL | 0.795 | – | 0.842 | – | 0.758 | –
S. aureus DSM 20231 [8], partner 0.6 µg/mL | 0.679 | – | 0.689 | – | 0.636 | –
S. aureus Newman [6], partner 0.15 µg/mL | 0.781 | – | 0.769 | – | 0.727 | –
S. aureus Newman [6], partner 0.3 µg/mL | 0.66 | – | 0.654 | – | 0.637 | –
S. aureus Newman [6], partner 0.6 µg/mL | 0.523 | – | 0.536 | – | 0.508 | –
S. pneumoniae D39V [5], partner 1.2 µg/mL | – | 0.989 | – | 0.983 | – | 0.969
S. pneumoniae D39V [5], partner 2.4 µg/mL | – | 0.97 | – | 0.926 | – | 0.977
S. pneumoniae D39V [5], partner 4.8 µg/mL | – | 0.944 | – | 0.955 | – | 0.933

fitness, B. subtilis 168 [7], one replicate
Details | first compound 1.25 µg/mL | first compound 2.5 µg/mL | first compound 5 µg/mL
partner 0.15 µg/mL | ≥ 1 | ≥ 1 | 0.845
partner 0.3 µg/mL | ≥ 1 | 0.964 | 0.851
partner 0.6 µg/mL | 0.945 | 0.956 | 0.776

C[n+]1ccc(-c2cc[n+](C)cc2)cc1 [Paraquat] + Cc1cc(NS(=O)(=O)c2ccc(N)cc2)no1 [Sulfamethoxazol]
Details | Bliss interaction score
B. subtilis 168 [11] | 0.0341
S. aureus DSM 20231 [12] | -0.0548
S. aureus Newman [10] | 0.0523
S. pneumoniae D39V [9] | -0.0314

fitness
Details | partner 1 µg/mL | partner 2 µg/mL | partner 4 µg/mL
B. subtilis 168 [7], first compound 1.25 µg/mL | 0.928 | 0.901 | 0.976
B. subtilis 168 [7], first compound 2.5 µg/mL | 0.901 | 0.883 | 0.911
B. subtilis 168 [7], first compound 5 µg/mL | 0.821 | 0.823 | 0.853
S. aureus DSM 20231 [8], first compound 1.25 µg/mL | 0.952 | 0.959 | 0.946
S. aureus DSM 20231 [8], first compound 2.5 µg/mL | 0.882 | 0.866 | 0.842
S. aureus DSM 20231 [8], first compound 5 µg/mL | 0.812 | 0.868 | 0.885
S. aureus Newman [6], first compound 1.25 µg/mL | 0.977 | 0.946 | 0.915
S. aureus Newman [6], first compound 2.5 µg/mL | 0.985 | 0.964 | –
S. aureus Newman [6], first compound 5 µg/mL | 0.928 | 0.969 | 0.881
S. pneumoniae D39V [5], first compound 1.5 µg/mL | 0.979 | 0.971 | 0.926
S. pneumoniae D39V [5], first compound 3 µg/mL | 0.966 | 0.992 | 0.931
S. pneumoniae D39V [5], first compound 6 µg/mL | 0.995 | 0.986 | 0.94

fitness, one replicate
Details | first compound 1.25 µg/mL | first compound 2.5 µg/mL | first compound 5 µg/mL
B. subtilis 168 [7], partner 0.5 µg/mL | 0.922 | ≥ 1 | 0.82
S. aureus Newman [6], partner 8 µg/mL | 0.949 | 0.818 | 0.874
